Assay [1] deals with LP-1 multiple myeloma cells. Description: CCK-8 cytotoxicity. It is filed as cell-based. The note with it: LP-1 cells. The method, then: The in vitro anti-tumor activity of Dar-Ps-VCR against LP-1 multiple myeloma cells was determined using a CCK-8 kit, with MV4-11 cells as a control. LP-1 cells were first spread in 96-well plates (15,000/well) and placed in an incubator at 37° C. with 5% CO2 for 24 h. After that, 20 μL of Dar-Ps-VCR, Ps-VCR and free VCR containing different Dar surface densities were added to each well, and the final concentrations of VCR in the wells were 0.001, 0.01, 0.05, 0.1, 0.5, 1 and 10 ng/mL. After incubation at 37° C. for 48 h, 10 μL of CCK-8 solution was added to each well to continue the incubation for 4 h. Finally, its absorbance value at 492 nm was tested by an enzyme marker. Cell viability was calculated by the ratio of the absorbance value of the experimental group to the absorbance value of the cells incubated with the addition of PBS, and the experiment was performed in parallel for four groups (mean±SD, […]).

Assay [2] deals with LP-1-Luc multiple myeloma mice. Description: Anti-tumor effect in orthotopic LP-1-Luc multiple myeloma mice. Format: in vivo. The method, then:
Mice were simultaneously weighed.
To investigate the anti-tumor effect of Dar-Ps-VCR in […] LP-1-Luc multiple myeloma mice, treatment experiments were initiated when the bioluminescence intensity reached 1.2×10^6 p/sec/cm^2/sr on day 10 post-inoculation. There were two dosing regimens that maintained the same total VCR administration: one with a VCR dose of 0.25 mg/kg, one injection given on 4 days for a total of 4 injections, denoted as Dar-Ps-VCR (0.25 mg VCR equiv./kg, Q4d); and the other with a VCR dose of 0.50 mg/kg, one injection given on 8 days for a total of 2 injections, denoted as Dar-Ps-VCR (0.50 mg VCR equiv./kg, Q8d). Based on the first dosing regimen, equal VCR doses of Ps-VCR and free VCR, equal equivalents of Dar-Ps, and PBS were used as controls. Each treatment group consisted of 10 […] mice, of which 4 were used for bioluminescence imaging and 6 were used to monitor body weight and observe survival. […] At the end of drug administration, the tumors of mice in the non-targeted Ps-VCR and free VCR groups began to recur, and Luc bioluminescence signals increased rapidly, i.e., 157- and 53-fold by day 39, respectively.

Another assay relates to LP-1 cells. Kind of assay: AnnexinV-FITC/PI apoptosis by flow cytometry. It is filed as cell-based. The note with it: VCR 0.5 ng/mL, 48 h.

Where a name gives a salt, the structure may show the parent alone.

Experimental findings from patent US12478586B2, “Small molecular drug-loaded polymer vesicle, preparation method therefor and use thereof” (SOOCHOW UNIVERSITY, priority 2020, dated 2025) are described below.

Broadly, the IC50 is the concentration at which inhibition is half-maximal.

Description for LP-1 cells: LP-1 cells were first spread in 6-well plates at a density of 2×10^5 cells/well and incubated in the incubator for 24 h. After 24 h, 200 μL of Dar-Ps-VCR, Ps-VCR, and free VCR were added (the in-well concentration of VCR was 0.5 ng/mL), and the cells with only PBS were used as a control. After incubation in the incubator for 48 h, LP-1 cells were collected by centrifugation (800 rpm, 5 min) and washed twice with ice PBS, and finally 200 μL of Binding buffer was added to each sample to resuspend the cells (the cell density was approximately 10^6 cells/mL). After blowing uniformly, 100 μL was taken into the flow tube and 5 μL of AnnexinV-FITC and 10 μL of PI solution were added sequentially, and the cells were stained at room temperature and protected from light for 15 min, then 400 μL of PBS was added and mixed uniformly, and measured by flow cytometry within 1 h. The cells were then stained with PBS for 15 min at room temperature and protected from light for 15 min. Among them, the samples in the PBS group that were treated in a 50° C. water bath for 5 min and fixed with 4% paraformaldehyde for 5 min were used as the early apoptosis group and the late apoptosis group, respectively, and stained for 15 min by adding 5 μL of AnnexinV-FITC solution and 10 μL of PI solution, respectively.

Turning to `CC[C@]1(O)C[C@H]2CN(CCc3c([nH]c4ccccc34)[C@@](C(=O)OC)(c3cc4c(cc3OC)N(C=O)[C@H]3[C@@](O)(C(=O)OC)[C@H](OC(C)=O)[C@]5(CC)C=CCN6CC[C@]43[C@@H]65)C2)C1` [free VCR, vincristine sulfate], the IC50 in assay [1] (Homo sapiens, 48 h, VCR concentration, read-out: LC50 (IC50)) was 1.38 ng/mL. The median survival in assay [2] (0.25 mg VCR equiv./kg, Q4d (Dar-Ps: equal equivalents)) turned out to be 52 days. The “increase of Luc bioluminescence signal” value in assay [2] (by day 39, 0.25 mg VCR equiv./kg, Q4d) is 53 fold. In addition, the “Luc signal during the administration treatment period” value in assay [2] (days 10-22) is reported as “no significant increase or even a slight decrease in Luc signal”. In the assay on LP-1 cells, the apoptosis is on record as 31.4%.
For “free Dar: CD38-targeting monoclonal antibody daratumumab (Dar)”, the cell survival in assay [1] (Dar concentration 9 μg/mL) is recorded as around 100%.
